Laboratory results taken from patent publication US5688824A, “Use of leflunomide to prevent or control xenograft rejection” (priority 1996, dated 1997).
Where two headings read alike, the source gives them in different places.

How the values were obtained:
[1] = system: intimal thickening in balloon-injured carotids; conditions: 20 mg/kg daily from day 3 pre-transplant to day 13 post-transplant; cited from earlier work
SLE in MRL/lpr mice = conditions: cited from earlier work
[2] = system: intimal thickening of BN orthotopic femoral arterial grafts; conditions: oral 10 mg/kg/day; cited from earlier work
[3] = system: xenophile antibodies to human peripheral blood lymphocytes (PBL); conditions: cited from earlier work
[4] = system: platelet derived growth factor-receptor (PDGFR) tyrosine kinase; conditions: cited from earlier work
skin grafts = conditions: cited from earlier work
[5] = system: rejection of concordant hamster to rat cardiac xenografts; experiment: hamster to rat concordant cardiac xenograft rejection; format: in vivo, Golden Syrian hamster donor, Lewis (LEW) rat recipient
Excerpt: The fundamental design of this experiment was to determine a dose response curve using leflunomide as monotherapy, CsA as monotherapy, and both used as combination therapy. End points used to assess efficacy were duration of time to rejection, mortality, histologic differences among the treatment groups, and donor specific antibody responses.
Male LEW rats weighing approximately 200 grams and male Golden Syrian hamsters weighing approximately 150 grams (Harlan, Sprague, Dawley, Indianapolis, Ind.) were allowed five to ten days of acclimatization before surgery was performed. Ketamine-xylazine anesthesia was used in all animals and food and water were freely allowed post-operatively.
Heart transplantation was performed according to the technique of Ono et al., Cardiovasc. […] Cardiac xenograft survival was determined by daily palpation, and rejection was considered complete when the impulse was undetectable. CsA, in its intravenous form (Sandimmune, Sandoz Corporation, East Hanover, N.J.) was administered daily by intramuscular injection to the rat hind limbs. Leflunomide (HWA-486, Hoechst AG, Germany) suspended in 1% carboxymethylcellulose was administered by gavage daily. Immunosuppression therapy was started on the day of surgery unless otherwise specified.
The transplanted animals were assigned to one control group and twelve treatment groups, with dosing at 2.5, 5, 10, 15 and 20 mg/kg of leflunomide, and 10 and 20 mg/kg of CsA. In two groups CsA was kept at 10 mg/kg while leflunomide was dosed at 5 or 10 mg/kg. Three additional treatment groups were included in which leflunomide monotherapy was started seven days before transplantation, or two or three days after transplantation.
The graft heart was excised after cessation of heart beat. Part of the heart was snap frozen in liquid nitrogen and stored at -70° C.; the remainder was fixed in formalin and stained with hematoxylin and eosin to determine pathological changes. The frozen tissue was stained for IgM and IgG deposition using ABC Technique according to Hsu et al., J. Histochem. Cytochem., 29:577 (1981).

[6] = system: BN heterotopic heart grafts; conditions: oral 15 mg/kg/day, cited from earlier work
[7] = system: tubulointerstitial nephritis; conditions: BN rats, cited from earlier work
[8] = system: heterotopic small intestinal transplantation; conditions: continuous infusion pump, cited from earlier work
human T-cell = conditions: stimulated by allogeneic lymphocytes, anti-CD3 or anti-CD28 with PMA, or IL-2 or IL-2 with PMA; cited from earlier work
[9] = system: proteoglycan-induced arthritis; conditions: BALB/c mouse; cited from earlier work
IL-2 = conditions: cited from earlier work
[10] = to open-ring form A771726; cited from earlier work
[11] = system: cardiac allografts, established acute rejection; conditions: cited from earlier work; for mean survival time of the cardiac allografts: 7 days
allogeneic kidney graft = conditions: cited from earlier work
[12] = system: rat adjuvant arthritis models and rat allergic encephalitis model; conditions: cited from earlier work
[13] = cited from earlier work
[14] = Lef 15 mg/kg, day began 0, group 5, listed as Lef

Compound: Cc1oncc1C(=O)Nc1ccc(C(F)(F)F)cc1 [leflunomide, N-(4-trifluoromethylphenyl)-5-methylisoxazol-4-carboxamide]
- intimal thickening [1]: significantly reduced intimal thickening in balloon-injured carotids
- ability to inhibit SLE relative to Cyclosporine A (SLE in MRL/lpr mice; MRL/lpr mice): equal or superior to Cyclosporine A (CsA) in ability to inhibit SLE
- disease progression, lymphocyte accumulation, T-cell ratio (SLE in MRL/lpr mice; MRL/lpr mice): stops disease progression and prevents the development of glomerulonephritis
- disease progression, lymphocyte accumulation, T-cell ratio (SLE in MRL/lpr mice; MRL/lpr mice, listed as Leflunomide): suppresses the intense accumulation of lymphocytes in the lymph nodes and spleen of these mice, restores the T-cell helper/suppressor ratio to normal values, and restores the depressed proliferative response of lymphocytes and macrophages
- animals still alive (SLE in MRL/lpr mice; at the end of 10 weeks, mice with elevated urine protein): 90%
- intimal thickening [2]: reduced intimal thickening compared to untreated controls
- pre-existing, natural xenophile antibodies ([3]; 10 mg/kg/day for 10 days): decrease in pre-existing, natural xenophile antibodies
- xenophile antibody production ([3]; 3 or 10 mg/kg/day from day -4 to day +10, sensitized rats): inhibited xenophile antibody production in a dose-dependent manner
- inhibition of PDGFR tyrosine kinase activity [4]: inhibits the intrinsic EGF receptor kinase as well as other kinases such as platelet derived growth factor-receptor (PDGFR) tyrosine kinase activity
- skin graft survival time vs untreated (skin grafts; 2.5 to 20 mg/kg by gavage for 10 days): more than doubled graft survival time compared to untreated animals
- skin graft survival, delayed treatment (skin grafts; started five to ten days after grafting): achieved prolongation of skin graft survival
- graft histology ([5]; 2.5 mg/kg leflunomide, rejected grafts): Interstitial hemorrhage, focal vascular thrombosis and myocardial necrosis with sparse polymorphonuclear cellular infiltration
- graft histology ([5]; 5.0 mg/kg leflunomide, rejected grafts): Interstitial hemorrhage, focal vascular thrombosis and myocardial necrosis with sparse polymorphonuclear cellular infiltration
- graft histology ([5]; 15 mg/kg leflunomide monotherapy, long-term grafts): myocardial fibrosis, moderate mononuclear cell infiltration and arterial thickening, consistent with chronic rejection
- Mean Survival ± SD ([5]; Lef 2.5 mg/kg, day began 0, group 2): 5.0 ± 0.6 days
- Mean Survival ± SD ([5]; Lef 5 mg/kg, day began 0, group 3): 7.7 ± 2.5 days
- Graft Survival for Each Subject ([5]; Lef 5 mg/kg, day began 0, group 3, listed as Lef): 8,14 days
- Mean Survival ± SD ([5]; Lef 10 mg/kg, day began 0, group 4): 52.0 ± 20.2 days
- Mean Survival ± SD ([5]; Lef 10 mg/kg, day began +2, group 12): 58.0 ± 13.7 days
- Graft Survival for Each Subject ([5]; Lef 10 mg/kg, day began +2, group 12, listed as Lef): 76,77 days
- Mean Survival ± SD ([5]; Lef 10 mg/kg, day began +3, group 13): 3.7 ± 0.5 days
- Mean Survival ± SD ([5]; Lef 10 mg/kg, day began -7, group 11): 64.0 ± 13.3 days
- Mean Survival ± SD ([5]; Lef 15 mg/kg, day began 0, group 5): 76.5 ± 21 days
- Graft Survival for Each Subject [5, 14]: 100,105 days
- Mean Survival ± SD [5, 14]: 76.5 ± 21.1 days
- Mean Survival ± SD ([5]; Lef 20 mg/kg, day began 0, group 6): 58.9 ± 28.1 days
- Graft Survival for Each Subject ([5]; Lef 20 mg/kg, day began 0, group 6, listed as Lef): 100 days
- time to rejection of the graft ([5]; initiation of leflunomide delayed until day 3, all animals): ≤ 24 h
- toxicity ([5]; leflunomide 20 mg/kg): lethal toxicity appeared
- optimal dose ([5]; leflunomide monotherapy): 15 mg/kg
- control of xenograft rejection ([5]; leflunomide monotherapy, high doses causing toxicity): unable to totally control xenograft rejection
- minimal effective dose ([5]; leflunomide monotherapy, read-out: dose at which graft survival exceeded that of untreated controls): 10 mg/kg
- effect of start time on length of graft survival ([5]; leflunomide started seven days before or two days after transplantation): no significant effect on length of graft survival
- graft vascular disease ([6]; day 50): had no graft vascular disease
- antibodies directed against BN grafts in sera [6]: contained no antibodies directed against the BN grafts
- prevention of tubulointerstitial nephritis [7]: very effective
- reduction of incidence of auto-antibody formation [7]: much more effective than any of the other drugs in reducing the incidence of auto-antibody formation
- prevention of tubulointerstitial nephritis ([7]; listed as Leflunomide): as effective as Cyclosporine A, and was more effective than prednisolone, naproxen or indomethacin in preventing disease development
- survival of recipients ([8]; 7 days): 29.3 ± 13.8 days
- survival of recipients ([8]; 14 days): 38.8 ± 11.5 days
- inhibition of human T-cell proliferation (human T-cell): inhibit human T-cell proliferation
- effect on arthritis [9]: suppresses acute inflammation and protects animals from new inflammatory episodes or acute exacerbation of chronically inflamed joints
- inhibition of production of IL-2 (IL-2): only partially inhibits the production of IL-2
- conversion after administration [10]: rapidly convened to its active open-ring form
- prolongation of survival ([11]; 5 mg/kg by gavage, 7- or 14-day course from day of transplantation): approximately equal prolongations of survival
- mononuclear leukocyte infiltration ([11]; started at day 4): completely cleared the mononuclear leukocyte infiltration on histological analysis
- mean survival time of the cardiac allografts ([11]; started at day 4 post-transplantation): 25.4±1.4 days
- mean survival time of the cardiac allografts ([11]; started at day 6 post-transplantation): 16.3±8.5 days
- allospecific IgG response ([11]; started day 4): The generation of allospecific IgG response was inhibited
- allospecific cytotoxic antibody production (primarily IgM) ([11]; started day 4): abrupt drop to near background levels after 7 days of treatment
- reversal of acute rejection ([11]; therapy post-transplantation): effective in reversing acute rejection as determined by both functional and histological criteria
- toxicity in dogs (allogeneic kidney graft; dog, in vivo): limited, however, by toxicity due to the canine's N-acetylation enzyme deficiency
- survival (allogeneic kidney graft; leflunomide 8 mg/kg daily): 27 ± 1 days
- survival (allogeneic kidney graft; leflunomide 16 mg/kg daily): 21 ± 2 days
- time to rejection after withdrawal of leflunomide (allogeneic kidney graft; withdrawn from two dogs after 100 days, combination-treated group): ≤ 14 days
- anti-inflammatory activity and toxicity ([12]; U.S. Pat. No. 4,351,841): superior anti-inflammatory activity and decreased toxicity
- inhibition of immunopathological processes ([12]; two rat adjuvant arthritis models and a rat allergic encephalitis model): inhibit immunopathological processes
- toxicity ([13]; animal studies, extremely high doses): liver and cardiac toxicity
- tolerability ([13]; animals and man): well tolerated in animals and man
